Usually IC50 stands for the concentration needed to halve the response being measured.

GI50 and IC50 data for 15 compounds are collected here from US20220402948A1, “EGFR INHIBITOR, COMPOSITION AND PREPARATION METHOD THEREFOR” (BETTA PHARMACEUTICALS CO., LTD., priority 2019, published 2022).

The target in assay [1] is Ba/F3-EGFR wild-type cell line (Homo sapiens, UniProt P00533). The assay can be described thus: Ba/F3-EGFR wild-type cell proliferation assay (CellTiter Glo, 72 hours). Format: cell-based. The settings on record: Table 2, read-out: EGFR WT IC50. As to the method:
Cell line: Ba/F3 cells with EGFR Δ19del/T790M/C797S mutation gene stably overexpressed named Ba/F3-Δ119del/T90M/C797S, and A431 and Ba/F3-EGFR wild-type cell line.
a) Centrifuge the growth cells in logarithmic phase at 1000 rpm for 5 minutes, resuspend the cells in culture medium, and then count the cells;
b) Inoculate the cells into a 96-well cell culture plate with a density of 2000 cells/well;
b) Incubate cells in an incubator for another 72 hours.
a) Take out the 96-well cell culture plate and add 50 μl CTG reagent (CellTiter Glo kit, promega, Cat #G7573);
b) Shake the plate for 2 minutes and let cool at room temperature for 10 minutes;
c) Read luminous signal value with PerkinElmer reader,
Analysis of Experimental Data
The data were analyzed by GraphPad Prism 6.0 software to obtain the fitting curve of compound activity.
Y=Min+(Max−Min)/(1+10^((Log IC50−X)*slope));
X: Logarithm of compound concentration; Y: luminous signal.

Assay [2] has as its target Ba/F3 cells with EGFR Δ19del/T790M/C797S mutation gene stably overexpressed (Homo sapiens, UniProt P00533, T790M/C797S, cells depend on it, form not given). Briefly: Ba/F3-Δ19del/T790M/C797S cell proliferation assay (CellTiter Glo, 72 hours). Format: cell-based. The settings on record: Table 2, read-out: EGFR Δ19del/T790M/C797S IC50. A digest of the protocol:
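Ba/F3 cells stably overexpressing wild-type EGFR or EGFR Δ19del/T790M/C797S were seeded at 2000 cells/well and incubated 72 h with compound. Viability was read by CellTiter-Glo luminescence, and IC50 came from a four-parameter logistic fit of signal against log concentration.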

The next assay addresses IGF1R (Homo sapiens, UniProt P08069). Briefly: IGF1R kinase test (mobility variation analysis, Caliper EZ Reader). Format: biochemical. The settings on record: kinase enzymatic activity, Table 1; read-out: EGFR IGF1R IC50. The method in brief: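 Mobility-shift readout of substrate conversion, normalised to positive (no compound) and negative (no kinase) controls, gives % inhibition and IC50 by four-parameter fit. Compounds, 3-fold dilutions over 10 concentrations starting at 3000 nM, preincubated 10 min with kinase before ATP/substrate start; room temperature.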

Another assay deals with A431. The assay can be described thus: A431 cell proliferation assay (CellTiter Glo, 72 hours). Format: cell-based. The settings on record: Homo sapiens, A-431, 72 h, cell proliferation, A431, 72 hours, Table 2; read-out: A431 IC50. The method in brief:
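Luminescence (CellTiter-Glo) after 72 h treatment gives viability, fitted by nonlinear regression to yield IC50. Cells seeded at 2000 per well; nine 3-fold concentrations from 1000 nM, DMSO final 0.1% (0.5% for certain compounds).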
A general note: In ATP-based viability assays light output follows the ATP content of the culture.

The target of a further assay is EGFR WT (Homo sapiens, UniProt P00533). Briefly: EGFR WT kinase test (mobility variation analysis, Caliper EZ Reader). Format: biochemical. Conditions: kinase enzymatic activity, Table 1. A digest of the protocol: (§1)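 Read-out is substrate-to-product conversion by mobility shift, stopped after incubation at room temperature with ATP and substrate, following a 10-minute room-temperature compound–enzyme pre-incubation. IC50 obtained by four-parameter variable-slope fitting of inhibition normalized between enzyme-free and uninhibited controls.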

Another assay has as its target EGFRΔ19del/T790M/C797S (Homo sapiens, UniProt P00533, T790M/C797S, form not given). The assay can be described thus: EGFR Δ19del/T790M/C797S kinase test (mobility variation analysis, Caliper EZ Reader). The assay is classed as biochemical. The settings on record: kinase enzymatic activity, Table 1. A digest of the protocol: as §1

Sequence of Ba/F3-EGFR wild-type cell line (P00533 whole entry, stated change not applied): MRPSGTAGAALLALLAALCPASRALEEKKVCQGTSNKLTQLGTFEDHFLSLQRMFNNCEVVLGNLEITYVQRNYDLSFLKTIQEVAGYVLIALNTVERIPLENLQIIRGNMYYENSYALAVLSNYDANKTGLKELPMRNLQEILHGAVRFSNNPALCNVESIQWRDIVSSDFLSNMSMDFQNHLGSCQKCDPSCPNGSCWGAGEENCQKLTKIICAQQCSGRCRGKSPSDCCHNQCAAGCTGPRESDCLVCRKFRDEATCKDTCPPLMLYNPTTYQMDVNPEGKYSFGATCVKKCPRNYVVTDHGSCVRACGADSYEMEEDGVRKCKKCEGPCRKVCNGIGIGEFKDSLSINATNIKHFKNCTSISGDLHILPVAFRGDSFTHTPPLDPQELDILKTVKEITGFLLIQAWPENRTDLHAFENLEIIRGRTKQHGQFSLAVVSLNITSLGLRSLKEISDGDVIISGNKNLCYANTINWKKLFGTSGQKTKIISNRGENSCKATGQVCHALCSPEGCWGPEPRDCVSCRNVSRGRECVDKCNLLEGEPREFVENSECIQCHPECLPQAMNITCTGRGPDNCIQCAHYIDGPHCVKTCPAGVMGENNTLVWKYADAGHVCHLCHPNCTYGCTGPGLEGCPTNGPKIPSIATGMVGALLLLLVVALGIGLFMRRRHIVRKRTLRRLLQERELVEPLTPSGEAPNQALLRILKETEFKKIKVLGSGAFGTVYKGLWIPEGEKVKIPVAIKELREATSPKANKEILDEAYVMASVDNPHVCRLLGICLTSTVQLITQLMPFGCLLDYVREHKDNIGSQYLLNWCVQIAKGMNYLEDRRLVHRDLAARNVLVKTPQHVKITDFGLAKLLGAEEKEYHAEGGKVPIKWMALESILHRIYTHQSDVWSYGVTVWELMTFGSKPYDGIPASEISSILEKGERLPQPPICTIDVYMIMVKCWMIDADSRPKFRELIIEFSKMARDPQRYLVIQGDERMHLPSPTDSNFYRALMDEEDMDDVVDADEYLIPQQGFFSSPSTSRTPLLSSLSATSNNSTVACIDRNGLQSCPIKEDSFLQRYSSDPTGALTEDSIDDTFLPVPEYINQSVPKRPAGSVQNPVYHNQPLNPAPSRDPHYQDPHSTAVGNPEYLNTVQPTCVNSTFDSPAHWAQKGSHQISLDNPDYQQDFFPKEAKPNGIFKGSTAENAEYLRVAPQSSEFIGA
Sequence of IGF1R (P08069 31-1367, species assumed): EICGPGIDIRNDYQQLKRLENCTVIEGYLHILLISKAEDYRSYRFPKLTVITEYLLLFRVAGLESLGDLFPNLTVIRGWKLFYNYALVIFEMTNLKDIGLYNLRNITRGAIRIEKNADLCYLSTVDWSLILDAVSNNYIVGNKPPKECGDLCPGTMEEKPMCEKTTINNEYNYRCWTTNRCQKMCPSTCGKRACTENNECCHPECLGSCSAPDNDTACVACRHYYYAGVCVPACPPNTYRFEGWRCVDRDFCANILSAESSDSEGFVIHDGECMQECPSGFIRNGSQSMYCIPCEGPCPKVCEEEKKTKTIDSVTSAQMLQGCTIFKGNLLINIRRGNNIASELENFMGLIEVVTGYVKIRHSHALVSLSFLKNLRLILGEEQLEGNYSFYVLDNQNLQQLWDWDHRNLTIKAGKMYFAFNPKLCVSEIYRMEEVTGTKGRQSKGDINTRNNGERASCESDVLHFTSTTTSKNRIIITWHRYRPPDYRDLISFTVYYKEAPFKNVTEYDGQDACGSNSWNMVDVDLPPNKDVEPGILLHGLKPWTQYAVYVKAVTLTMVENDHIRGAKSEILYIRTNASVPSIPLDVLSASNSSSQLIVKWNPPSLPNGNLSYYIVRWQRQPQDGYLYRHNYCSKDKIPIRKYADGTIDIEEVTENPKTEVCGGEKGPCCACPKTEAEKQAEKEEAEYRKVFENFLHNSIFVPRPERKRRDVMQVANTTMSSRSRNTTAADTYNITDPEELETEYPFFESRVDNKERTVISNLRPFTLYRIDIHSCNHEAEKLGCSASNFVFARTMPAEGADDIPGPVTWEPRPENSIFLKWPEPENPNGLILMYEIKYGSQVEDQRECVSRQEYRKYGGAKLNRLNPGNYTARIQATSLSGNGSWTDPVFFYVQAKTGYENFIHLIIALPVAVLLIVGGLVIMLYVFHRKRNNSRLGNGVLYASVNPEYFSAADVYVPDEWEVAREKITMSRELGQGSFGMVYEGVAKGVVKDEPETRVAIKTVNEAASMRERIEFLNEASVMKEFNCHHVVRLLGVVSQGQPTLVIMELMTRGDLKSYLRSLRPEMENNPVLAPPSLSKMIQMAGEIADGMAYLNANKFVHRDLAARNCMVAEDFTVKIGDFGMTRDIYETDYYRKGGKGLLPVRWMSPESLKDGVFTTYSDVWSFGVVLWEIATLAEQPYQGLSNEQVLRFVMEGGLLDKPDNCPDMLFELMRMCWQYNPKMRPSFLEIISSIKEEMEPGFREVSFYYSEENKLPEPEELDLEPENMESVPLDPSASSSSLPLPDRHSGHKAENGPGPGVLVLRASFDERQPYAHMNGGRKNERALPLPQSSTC
Sequence of EGFRΔ19del/T790M/C797S (P00533 with tags, fused parts or gaps DEL746-750/T790M/C797S, form open): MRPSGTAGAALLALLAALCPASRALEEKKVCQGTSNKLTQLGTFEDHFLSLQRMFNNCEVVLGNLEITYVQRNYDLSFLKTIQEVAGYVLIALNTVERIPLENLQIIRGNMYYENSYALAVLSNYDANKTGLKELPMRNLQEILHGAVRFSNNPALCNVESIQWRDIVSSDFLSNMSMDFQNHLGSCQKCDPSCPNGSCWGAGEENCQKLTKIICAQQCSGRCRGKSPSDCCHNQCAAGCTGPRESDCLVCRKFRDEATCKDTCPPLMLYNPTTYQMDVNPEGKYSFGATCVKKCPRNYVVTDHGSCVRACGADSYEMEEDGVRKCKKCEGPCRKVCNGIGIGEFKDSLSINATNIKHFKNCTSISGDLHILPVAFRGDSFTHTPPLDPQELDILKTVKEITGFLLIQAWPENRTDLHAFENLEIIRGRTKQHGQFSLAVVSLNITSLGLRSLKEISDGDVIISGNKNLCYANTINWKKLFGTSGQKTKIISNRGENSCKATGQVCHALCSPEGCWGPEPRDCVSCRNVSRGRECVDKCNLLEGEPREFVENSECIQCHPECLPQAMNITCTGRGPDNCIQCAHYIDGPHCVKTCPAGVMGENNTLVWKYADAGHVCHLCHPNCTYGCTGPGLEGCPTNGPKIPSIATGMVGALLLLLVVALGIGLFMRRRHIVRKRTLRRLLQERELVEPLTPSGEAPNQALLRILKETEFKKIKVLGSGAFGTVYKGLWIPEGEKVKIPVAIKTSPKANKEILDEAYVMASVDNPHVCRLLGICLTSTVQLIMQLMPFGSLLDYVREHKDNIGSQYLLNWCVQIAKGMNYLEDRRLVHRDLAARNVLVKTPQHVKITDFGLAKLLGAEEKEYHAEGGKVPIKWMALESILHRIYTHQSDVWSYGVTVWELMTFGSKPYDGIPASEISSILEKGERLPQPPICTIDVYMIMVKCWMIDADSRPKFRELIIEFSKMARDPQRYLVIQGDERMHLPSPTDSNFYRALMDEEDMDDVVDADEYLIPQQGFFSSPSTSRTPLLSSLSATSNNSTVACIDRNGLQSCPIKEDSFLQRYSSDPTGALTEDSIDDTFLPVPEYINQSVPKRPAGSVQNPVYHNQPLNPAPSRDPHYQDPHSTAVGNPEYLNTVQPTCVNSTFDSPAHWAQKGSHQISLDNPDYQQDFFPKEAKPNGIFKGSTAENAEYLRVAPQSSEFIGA
Sequence of Ba/F3 cells with EGFR Δ19del/T790M/C797S mutation gene stably overexpressed (P00533 with tags, fused parts or gaps DEL746-750/T790M/C797S, form open): as above

With `CCc1cc(Nc2ncc(Br)c(Nc3ccc(-c4ncc(C(C)C)cn4)cc3P(C)(C)=O)n2)c(OC)cc1N1CCC(N2CCN(C)CC2)CC1` [Compound K-056, (2-((5-Bromo-2-((5-ethyl-2-methoxy-4-(4-(4-methylpiperazin-1-yl)piperidin-1-yl)phenyl)amino)pyrimidin-4-yl)amino)-5-(5-isopropylpyrimidin-2-yl)phenyl)dimethylphosphine oxide], the GI50 in assay [1] worked out at 524 nM.
As for `CCc1cc(Nc2ncc(Cl)c(Nc3ccc(-c4nn(C)cc4C#N)cc3P(C)(C)=O)n2)c(OC)cc1N1CCC(N2CCN(C)CC2)CC1` [Compound K-060, 3-(4-((5-Chloro-2-((5-ethyl-2-methoxy-4-(4-(4-methylpiperazin-1-yl)piperidin-1-yl)phenyl)amino)pyrimidin-4-yl)amino)-3-(dimethylphosphineoxide)phenyl)-1-methyl-1H-pyrazol-4-carbonitrile], in assay [1], the GI50 was determined as 293 nM.
As for `CCOc1ncc(-c2ccc(Nc3nc(Nc4cc(CC)c(N5CCC(N6CCN(C)CC6)CC5)cc4OC)ncc3Br)c(P(C)(C)=O)c2)cn1` [Compound K-059, (2-((5-Bromo-2-((5-ethyl-2-methoxy-4-(4-(4-methylpiperazin-1-yl)piperidin-1-yl)phenyl)amino)pyrimidin-4-yl)amino)-5-(2-ethoxypyrimidin-5-yl)phenyl)dimethylphosphine oxide], the GI50 in assay [1] came out at 352 nM.
As for `CCc1cc(Nc2ncc(Br)c(Nc3ccc(-c4ccc(C)nc4)cc3P(C)(C)=O)n2)c(OC)cc1N1CCC(N2CCN(C)CC2)CC1` [Compound K-070, (2-((5-Bromo-2-((5-ethyl-2-methoxy-4-(4-(4-methylpiperazin-1-yl)piperidin-1-yl)phenyl)amino)pyrimidin-4-yl)amino)-5-(6-methylpyridin-3-yl)phenyl)dimethylphosphine oxide], in assay [1], the GI50 is 238 nM.
For `CCc1cc(Nc2ncc(Br)c(Nc3ccc(-c4nn(C)c5ncccc45)cc3P(C)(C)=O)n2)c(OC)cc1N1CCC(N2CCN(C)CC2)CC1` [Compound 9, (2-((5-Bromo-2-((5-ethyl-2-methoxy-4-(4-(4-methylpiperazin-1-yl)piperidin-1-yl)phenyl)amino)pyrimidin-4-yl)amino)-5-(1-methyl-1H-pyrazol[3,4-b]pyridin-3-yl)phenyl)dimethylphosphine oxide], the GI50 in assay [2] is 23.1 nM. Further, the IC50 on IGF1R was 826 nM; in the assay with A431, 1450 nM; on EGFR WT, 63.4 nM; on EGFRΔ19del/T790M/C797S, 0.4 nM.
`CCc1cc(Nc2ncc(Br)c(Nc3ccc(-c4ncc(C(C)C)cn4)cc3P(C)(C)=O)n2)c(OC)cc1N1CCC(N2CCN(C)CC2)CC1` [Compound 73, (2-((5-Bromo-2-((5-ethyl-2-methoxy-4-(4-(4-methylpiperazin-1-yl)piperidin-1-yl)phenyl)amino)pyrimidin-4-yl)amino)-5-(5-isopropylpyrimidin-2-yl)phenyl)dimethylphosphine oxide]: the GI50 in assay [2] came to 39.5 nM. The IC50 is 223 nM on IGF1R, 1530 nM with A431, 38 nM on EGFR WT and 0.9 nM against EGFRΔ19del/T790M/C797S.
`CCc1cc(Nc2ncc(Br)c(Nc3ccc(-c4cnc(N(C)C)nc4)cc3P(C)(C)=O)n2)c(OC)cc1N1CCC(N2CCN(C)CC2)CC1` [Compound K-057, (2-((5-Bromo-2-((5-ethyl-2-methoxy-4-(4-(4-methylpiperazin-1-yl)piperidin-1-yl)phenyl)amino)pyrimidin-4-yl)amino)-5-(2-(dimethylamino)pyrimidin-5-yl)phenyl)dimethylphosphine oxide]: the GI50 in assay [1] was 206 nM.
Regarding `CCc1cc(Nc2ncc(Br)c(Nc3ccc(-c4ccccc4C#N)cc3P(C)(C)=O)n2)c(OC)cc1N1CCC(N2CCN(C)CC2)CC1` [Compound 51, 4′-((5-Bromo-2-((5-ethyl-2-methoxy-4-(4-(4-methylpiperazin-1-yl)piperidin-1-yl)phenyl)amino)pyrimidin-4-yl)amino)-3′-(dimethylphosphoryl)-[1,1′-biphenyl]-2-carbonitrile], the GI50 in assay [2] is 23.5 nM. Further, the 50% inhibitory concentration (IC50) on IGF1R worked out at 269 nM; with A431, 578 nM; against EGFR WT, 30.8 nM; against EGFRΔ19del/T790M/C797S it was 1.3 nM.
Consider `CCc1cc(Nc2ncc(Br)c(Nc3ccc(-c4cccc(C#N)c4)cc3P(C)(C)=O)n2)c(OC)cc1N1CCC(N2CCN(C)CC2)CC1` [Compound 5, 4′-((5-Bromo-2-((5-ethyl-2-methoxy-4-(4-(4-methylpiperazin-1-yl)piperidin-1-yl)phenyl)amino)pyrimidin-4-yl)amino)-3′-(dimethylphosphineoxide)-[1,1′-diphenyl]-3-carbonitrile], for which the GI50 in assay [2] was 18.7 nM. Besides, the IC50 at IGF1R was 117 nM; in the assay with A431, greater than 10000 nM; against EGFR WT it was 12.5 nM; against EGFRΔ19del/T790M/C797S, 0.4 nM.
Consider `CCc1cc(Nc2ncc(Br)c(Nc3ccc(-c4cccc5c4COC5)cc3P(C)(C)=O)n2)c(OC)cc1N1CCC(N2CCN(C)CC2)CC1` [Compound 11, (2-((5-Bromo-2-((5-ethyl-2-methoxy-4-(4-(4-methylpiperazin-1-yl)piperidin-1-yl)phenyl)amino)pyrimidin-4-yl)amino)-5-(1,3-dihydroisobenzofuran-4-yl)phenyl)dimethylphosphine oxide], for which the GI50 in assay [2] came to 18.9 nM. In addition, the IC50 was 494 nM on IGF1R, 1020 nM in the assay on A431, 28.6 nM on EGFR WT and 0.6 nM at EGFRΔ19del/T790M/C797S.
`CCc1cc(Nc2ncc(Br)c(Nc3ccc(-c4cnc(C)cn4)cc3P(C)(C)=O)n2)c(OC)cc1N1CCC(N2CCN(C)CC2)CC1` [Compound 80, (2-((5-Bromo-2-((5-ethyl-2-methoxy-4-(4-(4-methylpiperazin-1-yl)piperidin-1-yl)phenyl)amino)pyrimidin-4-yl)amino)-5-(5-methylpyrazin-2-yl)phenyl)dimethylphosphine oxide]: in assay [2], the GI50 was 8.2 nM. In addition, the IC50 on IGF1R was 81 nM; with A431 it was 4610 nM; against EGFR WT it was 12.8 nM; at EGFRΔ19del/T790M/C797S, 0.2 nM.
With `CCc1cc(Nc2ncc(Br)c(Nc3ccc(-c4ccc(C#N)cc4)cc3P(C)(C)=O)n2)c(OC)cc1N1CCC(N2CCN(C)CC2)CC1` [Compound 10], the GI50 in assay [2] turned out to be 9.7 nM. Also, the IC50 at IGF1R is 109 nM; in the assay with A431, 14300 nM; against EGFR WT it was 19.5 nM; against EGFRΔ19del/T790M/C797S it was 0.6 nM.
Consider `CCc1cc(Nc2ncc(Cl)c(Nc3ccc(-c4cnc(OC)nc4)cc3P(C)(C)=O)n2)c(OC)cc1N1CCC(N2CCN(C)CC2)CC1` [Compound 25, (2-((5-Chloro-2-((5-ethyl-2-methoxy-4-(4-(4-methylpiperazin-1-yl)piperidin-1-yl)phenyl)amino)pyrimidin-4-yl)amino)-5-(2-methoxypyrimidin-5-yl)phenyl)dimethylphosphine oxide], for which the GI50 in assay [2] stood at 22.4 nM. For the same compound, the 50% inhibitory concentration (IC50) on IGF1R worked out at 169 nM; with A431, 1700 nM; at EGFR WT, 37.6 nM; at EGFRΔ19del/T790M/C797S, 0.4 nM.
The matching figures for `CCc1cc(Nc2ncc(Br)c(Nc3ccc(-c4cnc(C5CC5)cn4)cc3P(C)(C)=O)n2)c(OC)cc1N1CCC(N2CCN(C)CC2)CC1` [Compound 79, (2-((5-Bromo-2-((5-ethyl-2-methoxy-4-(4-(4-methylpiperazin-1-yl)piperidin-1-yl)phenyl)amino)pyrimidin-4-yl)amino)-5-(5-cyclopropylpyrazin-2-yl)phenyl)dimethylphosphine oxide]: 10.7 nM, 191 nM, 5650 nM, 18.1 nM and 0.4 nM.
The like results for `CCc1cc(Nc2ncc(Br)c(Nc3ccc(-c4ncc(C)cn4)cc3P(C)(C)=O)n2)c(OC)cc1N1CCC(N2CCN(C)CC2)CC1` [Compound 21, (2-((5-Bromo-2-((5-ethyl-2-methoxy-4-(4-(4-methylpiperazin-1-yl)piperidin-1-yl)phenyl)amino)pyrimidin-4-yl)amino)-5-(5-methylpyrimidin-2-yl)phenyl)dimethylphosphine oxide] were, in that order, 8.8 nM, 224 nM, 1390 nM, 25.6 nM and 0.7 nM.
